# Assay results published in US11168080B2, “Dynamin-1-like protein inhibitors” (Mitobridge, Inc., priority 2017, dated 2021).
# Target: Drp1 (Homo sapiens (Human), UniProt O00429)
# Test: Drp1 Activity Screen: colorimetric (malachite green) GTPase assay
# Type: biochemical
# Details: 1 mM GTP, 20 min at 37° C.; for IC50: GTPase activity, 0.6 μM Drp1 preincubated with 0.1 mg/mL liposomes; for max % inh: max % inhibition of Drp1 GTPase activity, 0.6 μM Drp1, 0.1 mg/mL liposomes
# Procedure: The GTPase activity of Drp1 was assayed using a colorimetric assay similar to as described previously by Leonard M. et al. “Robust colorimetric assays for dynamin's basal and stimulated GTPase activities.” Methods Enzymol. […] Briefly, for GTPase assays of purified Drp1 inhibitor samples, 0.6 μM Drp1 preincubated with 0.1 mg/mL liposomes (consisting of 80% soybean lipids/20% cardiolipin) and inhibitor was added to 1 mM GTP in a microtiter plate for 20 min at 37° C. in 4 mM MgCl2, 10 mM Hepes (pH 7.0), 100 mM KCl, 1 mM DTT. Reactions were stopped by diluting with 0.5 mM EDTA. Samples were then incubated with malachite green reagent (1 mM malachite green and 50 mM ammonium molybdate in 1 N HCl), and the absorbance at 650 nm was measured. The reaction rates, IC50 values, and max % inhibition were determined using Excel/GraphPad Prism software.
# Drp1, sequence (O00429 whole entry): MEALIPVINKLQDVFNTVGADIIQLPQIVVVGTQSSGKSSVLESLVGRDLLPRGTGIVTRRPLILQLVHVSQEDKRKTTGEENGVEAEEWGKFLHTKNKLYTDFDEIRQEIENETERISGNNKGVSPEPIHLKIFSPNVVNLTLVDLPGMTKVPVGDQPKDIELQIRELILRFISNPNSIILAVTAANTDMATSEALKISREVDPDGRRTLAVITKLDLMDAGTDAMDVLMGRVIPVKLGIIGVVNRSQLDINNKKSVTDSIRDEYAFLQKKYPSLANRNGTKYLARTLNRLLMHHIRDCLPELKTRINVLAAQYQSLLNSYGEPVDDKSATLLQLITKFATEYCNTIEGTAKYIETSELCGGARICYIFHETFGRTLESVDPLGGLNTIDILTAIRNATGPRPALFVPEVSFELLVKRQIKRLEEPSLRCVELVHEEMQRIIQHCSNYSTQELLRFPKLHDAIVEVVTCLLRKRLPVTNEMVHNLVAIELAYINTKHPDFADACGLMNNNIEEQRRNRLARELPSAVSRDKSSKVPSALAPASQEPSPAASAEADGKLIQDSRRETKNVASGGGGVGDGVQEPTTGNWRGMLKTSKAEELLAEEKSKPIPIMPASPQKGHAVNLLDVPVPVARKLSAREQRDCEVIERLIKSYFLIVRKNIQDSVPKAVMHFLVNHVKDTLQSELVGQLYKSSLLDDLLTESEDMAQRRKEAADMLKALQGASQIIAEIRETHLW
Compound,IC50 [nM],max % inh [%]
"Cc1ccc(C(=O)Nc2ccccc2)n1Cc1csc(N2CCCCC2)n1 [Compound A-39, 5-methyl-N-phenyl-1-((2-(piperidin-1-yl)thiazol-4-yl)methyl)-1H-pyrrole-2-carboxamide]",36000,26
"Cc1cc(C(=O)Nc2ccc3ccccc3c2)n(Cc2csc(N3CCCCC3)n2)c1 [Compound A-23, 4-methyl-N-(naphthalen-2-yl)-1-((2-(piperidin-1-yl)thiazol-4-yl)methyl)-1H-pyrrole-2-carboxamide]",1600,
"O=C(O)c1ccc(NC(=O)c2ccccc2Cc2csc(N3CCCCC3)n2)cc1 [Compound A-11, 4-(2-((2-(piperidin-1-yl)thiazol-4-yl)methyl)benzamido)benzoic Acid]",> 100000,
"Cc1cc(C(=O)Nc2ccc(C(=O)O)c(F)c2)n(Cc2csc(N3CCCCC3)n2)c1 [Compound A-57, 2-fluoro-4-(4-methyl-1-((2-(piperidin-1-yl)thiazol-4-yl)methyl)-1H-pyrrole-2-carboxamido)benzoic Acid]",2800,
"Cc1cc(C(=O)Nc2ccc(C(=O)O)cc2)n(Cc2csc(N3CCCCCC3)n2)c1 [Compound A-18, 4-(1-((2-(azepan-1-yl)thiazol-4-yl)methyl)-4-methyl-1H-pyrrole-2-carboxamido)benzoic Acid]",3400,
"Cc1cc(C(=O)Nc2ccc(C(=O)O)cc2)n(Cc2nc(N3CCCCC3)sc2C)c1 [Compound A-21, 4-(4-methyl-1-((5-methyl-2-(piperidin-1-yl)thiazol-4-yl)methyl)-1H-pyrrole-2-carboxamido)benzoic Acid]",11900,
"Cc1cc(C(=O)NC2CCCCC2)n(Cc2csc(N3CCCCC3)n2)c1 [Compound A-26, N-cyclohexyl-4-methyl-1-((2-(piperidin-1-yl)thiazol-4-yl)methyl)-1H-pyrrole-2-carboxamide]",1700,
"Cc1cc(Cn2cc(C)cc2C(=O)Nc2ccc(C(=O)O)cc2)nc(N2CCCCC2)c1 [Compound A-69, 4-(4-methyl-1-((4-methyl-6-(piperidin-1-yl)pyridin-2-yl)methyl)-1H-pyrrole-2-carboxamido)benzoic Acid]",11700,
"Cc1cc(C(=O)NC2COc3ccccc3C2)n(Cc2csc(N3CCCCC3)n2)c1 (centres unmarked) [Compound A-34, N-(chroman-3-yl)-4-methyl-1-((2-(piperidin-1-yl)thiazol-4-yl)methyl)-1H-pyrrole-2-carboxamide]",9000,
"Cc1cc(C(=O)Nc2ccc(C(=O)O)cc2)n(Cc2csc(N3CCCC(C)C3)n2)c1 (centres unmarked) [Compound A-19, 4-(4-methyl-1-((2-(3-methylpiperidin-1-yl)thiazol-4-yl)methyl)-1H-pyrrole-2-carboxamido)benzoic Acid]",2700,
"Cc1cc(C(=O)Nc2ccc3c(c2)CC(=O)N3)n(Cc2csc(N3CCCCC3)n2)c1 [Compound A-41, 4-methyl-N-(2-oxoindolin-5-yl)-1-((2-(piperidin-1-yl)thiazol-4-yl)methyl)-1H-pyrrole-2-carboxamide]",4200,
"Cc1cc(C(=O)Nc2ccc(-c3ccoc3)cc2)n(Cc2csc(N3CCCCC3)n2)c1 [Compound A-38, N-(4-(furan-3-yl)phenyl)-4-methyl-1-((2-(piperidin-1-yl)thiazol-4-yl)methyl)-1H-pyrrole-2-carboxamide]",1200,
"Cc1cc(C(=O)Nc2ccc(-c3cn[nH]c3)cc2)n(Cc2csc(N3CCCCC3)n2)c1 [Compound A-37, N-(4-(1H-pyrazol-4-yl)phenyl)-4-methyl-1-((2-(piperidin-1-yl)thiazol-4-yl)methyl)-1H-pyrrole-2-carboxamide]",1200,
"Cc1cn(Cc2csc(N3CCCCC3)n2)c(C(=O)Nc2ccc(C(=O)O)cc2)c1C [Compound A-68, 4-(3,4-dimethyl-1-((2-(piperidin-1-yl)thiazol-4-yl)methyl)-1H-pyrrole-2-carboxamido)benzoic acid]",30500,
"Cc1cc(C(=O)Nc2ccc(-c3c(C)noc3C)cc2)n(Cc2csc(N3CCCCC3)n2)c1 [Compound A-36, N-(4-(3,5-dimethylisoxazol-4-yl)phenyl)-4-methyl-1-((2-(piperidin-1-yl)thiazol-4-yl)methyl)-1H-pyrrole-2-carboxamide]",1400,
"Cc1cc(C(=O)Nc2ccccc2)n(Cc2csc(N3CCCCC3)n2)c1 [Compound A-15, 4-methyl-N-phenyl-1-((2-(piperidin-1-yl)thiazol-4-yl)methyl)-1H-pyrrole-2-carboxamide]",2200,68
"Cc1cc(C(=O)Nc2ccc(-c3nn[nH]n3)cc2)n(Cc2cccc(N3CCCCC3)n2)c1 [Compound A-67, N-(4-(1H-tetrazol-5-yl)phenyl)-4-methyl-1-((6-(piperidin-1-yl)pyridin-2-yl)methyl)-1H-pyrrole-2-carboxamide]",2100,
"Cc1cc(C(=O)Nc2ccc(C(=O)O)c(C)c2)n(Cc2csc(N3CCCCC3)n2)c1 [Compound A-61, 2-methyl-4-(4-methyl-1-((2-(piperidin-1-yl)thiazol-4-yl)methyl)-1H-pyrrole-2-carboxamido)benzoic Acid]",2500,
"Cc1cc(C(=O)Nc2ccc(C(=O)O)cc2F)n(Cc2csc(N3CCCCC3)n2)c1 [Compound A-66, 3-fluoro-4-(4-methyl-1-((2-(piperidin-1-yl)thiazol-4-yl)methyl)-1H-pyrrole-2-carboxamido)benzoic Acid]",7800,
"Cc1cc(C(=O)Nc2ccc(-c3cccnc3)cc2)n(Cc2csc(N3CCCCC3)n2)c1 [Compound A-35, 4-methyl-1-((2-(piperidin-1-yl)thiazol-4-yl)methyl)-N-(4-(pyridin-3-yl)phenyl)-1H-pyrrole-2-carboxamide]",1200,
"Cc1cc(C(=O)Nc2ccc(C(=O)O)nc2)n(Cc2csc(N3CCCCC3)n2)c1 [Compound A-62, 5-(4-methyl-1-((2-(piperidin-1-yl)thiazol-4-yl)methyl)-1H-pyrrole-2-carboxamido)picolinic Acid]",17000,
"O=C(Nc1ccc(-c2nn[nH]n2)cc1)c1cc(-c2ccccc2)cn1Cc1csc(N2CCCCC2)n1 [Compound A-58, N-(4-(1H-tetrazol-5-yl)phenyl)-4-phenyl-1-((2-(piperidin-1-yl)thiazol-4-yl)methyl)-1H-pyrrole-2-carboxamide]",2200,
"Cc1cc(C(=O)Nc2ccc(C(=O)O)cc2)n(Cc2csc(-c3ccccc3)n2)c1 [Compound A-17, 4-(4-methyl-1-((2-phenylthiazol-4-yl)methyl)-1H-pyrrole-2-carboxamido)benzoic Acid]",3800,
"O=C(O)c1ccc(NC(=O)c2cc(Cl)cn2Cc2csc(N3CCCCC3)n2)cc1 [Compound A-70, 4-(4-chloro-1-((2-(piperidin-1-yl)thiazol-4-yl)methyl)-1H-pyrrole-2-carboxamido)benzoic Acid]",2300,
"O=C(Nc1ccc(CO)cc1)c1cc(Br)cn1Cc1csc(N2CCCCC2)n1 [Compound A-63, 4-bromo-N-(4-(hydroxymethyl)phenyl)-1-((2-(piperidin-1-yl)thiazol-4-yl)methyl)-1H-pyrrole-2-carboxamide]",3400,68
"Cc1cc(C(=O)N[C@H]2CC[C@@H](C(=O)O)CC2)n(Cc2csc(N3CCCCC3)n2)c1 [Compound A-14, cis-4-(4-methyl-1-((2-(piperidin-1-yl)thiazol-4-yl)methyl)-1H-pyrrole-2-carboxamido)cyclohexane-1-carboxylic Acid]",39000,
